In EP4603105A1, “PHARMACEUTICAL COMPOSITION CONTAINING CYCLIC COMPOUND HAVING SELECTIVE KRAS INHIBITORY EFFECT AGAINST HRAS AND NRAS” (CHUGAI SEIYAKU KABUSHIKI KAISHA, priority 2022, dated 2024):
pIC50: −log10 of the molar value. Where two headings read alike, the source gives them in different places.

Experiments:
HRAS wild-type protein = HRAS wild-type protein (Homo sapiens, UniProt P01112); assay: Binding to HRAS by surface plasmon resonance (SPR), KD and KD ratio to KRAS
Method in brief: (§1)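 Recombinant RAS proteins bearing a biotinylated Avi tag and loaded with GDP served as the captured ligand, recaptured fresh every cycle. Binding responses were referenced to an uncoated surface and a buffer-only blank cycle. Dissociation constants were obtained by 1:1 model fitting at 30°C.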

[1] = system: human lung cancer strain NCI-H441; assay type: cell-based
Method in brief: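 Signal came from […] measured per well once the reagent was added. Beforehand, cells were cultured at 37°C and 5% carbon dioxide on a compound series serially diluted in dimethyl sulfoxide.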

[2] = molecular target: GDP-bound NRAS wild-type protein (Homo sapiens, UniProt P01111); assay: Binding to NRAS by surface plasmon resonance (SPR), KD and KD ratio to KRAS
GDP-bound NRAS wild-type protein, sequence (P01111 whole entry): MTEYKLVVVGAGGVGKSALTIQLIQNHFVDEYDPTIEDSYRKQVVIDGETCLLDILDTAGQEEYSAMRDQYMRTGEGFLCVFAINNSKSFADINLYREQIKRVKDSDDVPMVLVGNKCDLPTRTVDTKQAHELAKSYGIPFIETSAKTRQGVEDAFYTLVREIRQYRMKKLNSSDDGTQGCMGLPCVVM
Method in brief: as §1

[3] = ratio of KD for HRAS wild-type protein to KD for KRAS
[4] = ratio of KD for GDP-bound NRAS wild-type protein to KD for KRAS
[5] = ratio of the KD value with respect to HRAS wild-type protein to the KD value with respect to KRAS
[6] = ratio of the KD value with respect to GDP-bound NRAS wild-type protein to the KD value with respect to KRAS
[7] = ratio of KD value for HRAS wild-type protein to KD value for KRAS (SPR)
[8] = ratio of KD value for GDP-bound NRAS wild-type protein to KD value for KRAS (SPR)

HRAS wild-type protein, sequence (P01112 whole entry): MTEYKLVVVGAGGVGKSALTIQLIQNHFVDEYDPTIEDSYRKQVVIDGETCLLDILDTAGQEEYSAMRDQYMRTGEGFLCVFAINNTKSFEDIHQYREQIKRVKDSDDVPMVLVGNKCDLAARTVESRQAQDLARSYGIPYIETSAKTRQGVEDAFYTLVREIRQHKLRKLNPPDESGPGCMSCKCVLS

Row | pIC50 [1] | Compound | HRAS /KRAS (HRAS wild-type protein; [3]) | NRAS /KRAS [2, 4] | HRAS /KRAS (HRAS wild-type protein; [5]) | NRAS /KRAS [2, 6] | further results
1 | 8.60 | CC[C@H](C)[C@@H]1NC(=O)[C@H](CC(F)(F)F)N(C)C(=O)C[C@@H](C(=O)N2CCOCC2)N(C)C(=O)[C@H](C2CCCC2)N(C)C(=O)C2(CCCC2)NC(=O)[C@@H]2CCCN2C(=O)[C@H](CCc2cc(F)c(C(F)(F)F)c(F)c2)NC(=O)CN(C)C(=O)[C@H](Cc2ccc(C(F)(F)F)cc2)N2CCCC[C@@H](C2=O)N(C)C(=O)CN(C)C1=O [PP0594] |  |  | B (a compound having 3 or more and less than 10 is denoted as B) | C (A compound having a KD ratio of 0.1 or more and less than 3 is denoted as C) | 
2 | 8.26 | CC[C@H](C)[C@@H]1NC(=O)[C@H](CC2CC2)N(C)C(=O)C[C@@H](C(=O)N(C)C)N(C)C(=O)[C@H](C2CCCC2)N(C)C(=O)C2(CCC2)NC(=O)[C@@H]2C[C@H](C)CN2C(=O)[C@H](CCc2cc(F)c(C(F)(F)F)c(F)c2)NC(=O)CN(C)C(=O)[C@H](Cc2ccc(C(F)(F)F)cc2)N2CC/C=C\C[C@@H](C2=O)N(C)C(=O)CN(C)C1=O [PP1499] |  |  |  |  | HRAS /KRAS (HRAS wild-type protein; [7]): B (a compound having 3 or more and less than 10 is denoted as B); NRAS /KRAS [2, 8]: A (a compound having 10 or more and less than 20 is denoted as A)
3 | 6.66 | CC[C@H](C)[C@@H]1NC(=O)[C@H](CC)N(C)C(=O)C[C@@H](C(=O)N(C)C)N(CC)C(=O)[C@H](C2CCCC2)N(C)C(=O)C2(CCC2)NC(=O)[C@@H]2C[C@@H](N3CCC(F)(F)CC3)CN2C(=O)[C@H](CCc2cc(F)c(C(F)(F)F)c(F)c2)NC(=O)CN(C)C(=O)[C@H](Cc2ccc(C(F)(F)F)cc2)N2CCCC[C@@H](C2=O)N(C)C(=O)CN(C)C1=O [PP0733] |  |  | B (a compound having 3 or more and less than 10 is denoted as B) | B (a compound having 3 or more and less than 10 is denoted as B) | 
4 | 8.02 | CCO[C@@H]1C[C@H]2C(=O)NC3(CCC3)C(=O)N(C)[C@@H](C3CCCC3)C(=O)N(C)[C@H](C(=O)N(C)CC)CC(=O)N(C)[C@@H](CC(C)C)C(=O)N[C@@H]([C@@H](C)CC)C(=O)N(C)CC(=O)N(C)[C@H]3C/C=C\CCN(C3=O)[C@@H](Cc3ccc(C(F)(F)F)cc3)C(=O)N(C)CC(=O)N[C@@H](CCc3cc(F)c(C(F)(F)F)c(F)c3)C(=O)N2C1 [PP1300] |  |  |  |  | HRAS /KRAS (HRAS wild-type protein; ratio of KD with respect to HRAS wild-type protein to KD with respect to KRAS): A (a compound having 10 or more and less than 20 is denoted as A); NRAS /KRAS ([2]; ratio of KD with respect to GDP-bound NRAS wild-type protein to KD with respect to KRAS): A (a compound having 10 or more and less than 20 is denoted as A)
5 | 7.76 | CCO[C@@H]1C[C@H]2C(=O)NC3(CCCC3)C(=O)N(C)[C@@H](C3CCCC3)C(=O)N(C)[C@H](C(=O)N(C)C)CC(=O)N(C)[C@@H](CC)C(=O)N[C@@H]([C@@H](C)CC)C(=O)N(C)CC(=O)N(C)[C@H]3C[C@@H](C)CCN(C3=O)[C@@H](Cc3ccc(C(F)(F)F)cc3)C(=O)N(C)CC(=O)N[C@@H](CCc3cc(F)c(C(F)(F)F)c(F)c3)C(=O)N2C1 [PP1022] | B (a compound having 3 or more and less than 10 is denoted as B) | C (A compound having a KD ratio of 0.1 or more and less than 3 is denoted as C) |  |  | 
6 | 7.81 | CCO[C@@H]1C[C@H]2C(=O)NC3(CCC3)C(=O)N(C)[C@@H](C3CCCC3)C(=O)N(C)[C@H](C(=O)N(C)CC)CC(=O)N(C)[C@@H](C3CCC3)C(=O)N[C@@H]([C@@H](C)CC)C(=O)N(C)CC(=O)N(C)[C@H]3C/C=C\CCN(C3=O)[C@@H](Cc3ccc(C(F)(F)F)cc3)C(=O)N(C)CC(=O)N[C@@H](CCc3cc(F)c(C(F)(F)F)c(F)c3)C(=O)N2C1 [PP1996] |  |  | B (a compound having 3 or more and less than 10 is denoted as B) | A (a compound having 10 or more and less than 20 is denoted as A) | 

More lines, now with the values behind:

Row | Compound | pIC50 [1] | HRAS /KRAS (HRAS wild-type protein; [3]) | NRAS /KRAS [2, 4] | HRAS /KRAS (HRAS wild-type protein; [5]) | NRAS /KRAS [2, 6] | further results
7 | CCO[C@@H]1C[C@H]2C(=O)NC3(CC(C)(C)C3)C(=O)N(C)[C@@H](C3CCCC3)C(=O)N(C)[C@H](C(=O)N(C)C)CC(=O)N(C)[C@H]3CCCCCCc4ccc(cc4)C[C@@H](C(=O)N(C)CC(=O)N[C@@H](CCc4ccc(C(F)(F)F)c(OC)c4)C(=O)N2C1)N1CC/C=C\C[C@@H](C1=O)N(C)C(=O)CN(C)C(=O)[C@H]([C@@H](C)CC)NC3=O [PP3066] | 8.66 | B (a compound having 3 or more and less than 10 is denoted as B) | A (a compound having 10 or more and less than 20 is denoted as A) |  |  | 
8 | CCC[C@H]1C(=O)N[C@@H]([C@@H](C)CC)C(=O)N(C2CC2)CC(=O)N(C)[C@H]2C/C=C\CCN(C2=O)[C@@H](Cc2ccc(C)cc2)C(=O)N(C)CC(=O)N[C@@H](CCc2cc(F)c(C(F)(F)F)c(F)c2)C(=O)N2C[C@H](OCC)C[C@H]2C(=O)NC2(CC(C)(C)C2)C(=O)N(C)[C@@H](C2CCCC2)C(=O)N(C)[C@H](C(=O)N(C)C)CC(=O)N1C [PP2093] | 8.13 |  |  | A (a compound having 10 or more and less than 20 is denoted as A) | A (a compound having 10 or more and less than 20 is denoted as A) | 
9 | CCCN(C)C(=O)[C@@H]1CC(=O)N(C)[C@@H](CC(F)F)C(=O)N[C@@H]([C@@H](C)CC)C(=O)N(C)CC(=O)N(C)[C@H]2C/C=C\CCN(C2=O)[C@@H](Cc2ccc(C(F)(F)F)cc2)C(=O)N(C)CC(=O)N[C@@H](CCc2ccc(C(F)(F)F)c(OC)c2)C(=O)N2C[C@H](OCC)C[C@H]2C(=O)NC2(CCC2)C(=O)N(C)[C@@H](C2CCCC2)C(=O)N1C [PP2013] | 8.11 |  |  | B (a compound having 3 or more and less than 10 is denoted as B) | A (a compound having 10 or more and less than 20 is denoted as A) | 
10 | CCC(CC)[C@H]1C(=O)N(C)[C@H](C(=O)N2CCCC2)CC(=O)N(C)[C@H]2CCC/C=C/c3ccc(cc3)C[C@@H](C(=O)N(C)CC(=O)N[C@@H](CCc3ccc(Cl)c(Cl)c3)C(=O)N3CCC[C@H]3C(=O)NC3(CC(C)(C)C3)C(=O)N1C)N1CC/C=C\C[C@@H](C1=O)N(C)C(=O)CN(C)C(=O)[C@H]([C@@H](C)CC)NC2=O [PP2604] | 7.68 | A (a compound having 10 or more and less than 20 is denoted as A) | AA (a compound having 20 or more is denoted as AA) |  |  | 
11 | CCO[C@@H]1C[C@H]2C(=O)NC3(CCC3)C(=O)N(C)[C@@H](C(CC)CC)C(=O)N(C)C(C(C)C)CC(=O)N(C)[C@@H](CC3CC3)C(=O)N[C@@H]([C@@H](C)CC)C(=O)N(C)CC(=O)N(C)[C@H]3C/C=C\CCN(C3=O)[C@@H](Cc3ccc(C(F)(F)F)cc3)C(=O)N(C)CC(=O)N[C@@H](CCc3cc(F)c(C(F)(F)F)c(F)c3)C(=O)N2C1 (stereo partly drawn) [PP1595] | 7.19 |  |  |  |  | HRAS /KRAS (HRAS wild-type protein; [7]): A (a compound having 10 or more and less than 20 is denoted as A); NRAS /KRAS [2, 8]: A (a compound having 10 or more and less than 20 is denoted as A)
12 | CCCN(C)C(=O)[C@@H]1CC(=O)N(C)[C@@H](COCC)C(=O)N[C@@H]([C@@H](C)CC)C(=O)N(C)CC(=O)N(C)[C@H]2C/C=C\CCN(C2=O)[C@@H](Cc2ccc(C(F)(F)F)cc2)C(=O)N(C)CC(=O)N[C@@H](CCc2cc(F)c(C(F)(F)F)c(F)c2)C(=O)N2C[C@H](OCC)C[C@H]2C(=O)NC2(CCC2)C(=O)N(C)[C@@H](C2CCCC2)C(=O)N1C [PP1988] | 7.96 |  |  | A (a compound having 10 or more and less than 20 is denoted as A) | A (a compound having 10 or more and less than 20 is denoted as A) | 
13 | CCC[C@H]1C(=O)N[C@@H]([C@@H](C)CC)C(=O)N(C)CC(=O)N(C)[C@H]2C/C=C\CCN(C2=O)[C@@H](Cc2ccc(C(F)(F)F)cc2)C(=O)N(C)CC(=O)N[C@@H](CCc2ccc(C3CC3)c(OC)c2)C(=O)N2C[C@H](OCC)C[C@H]2C(=O)NC2(CC(C)(C)C2)C(=O)N(C)[C@@H](C2CCCC2)C(=O)N(C)[C@H](C(=O)N(C)C)CC(=O)N1C [PP2853] |  | A (a compound having 10 or more and less than 20 is denoted as A) | A (a compound having 10 or more and less than 20 is denoted as A) |  |  | pIC50 ([1]; NCI-H441 cells, 4 days, CellTiter-Glo, read-out: NCl-H441 IC50): 7.40
14 | CCO[C@@H]1C[C@H]2C(=O)NC3(CC(C)(C)C3)C(=O)N(C)[C@@H](C3CCCC3)C(=O)N(C)[C@H](C(=O)N(C)C)CC(=O)N(C)[C@H]3CCCCCCc4ccc(cc4)C[C@@H](C(=O)N(C)CC(=O)N[C@@H](CCc4ccc(Cl)c(Cl)c4)C(=O)N2C1)N1CC/C=C\C[C@@H](C1=O)N(C)C(=O)CN(C)C(=O)[C@H]([C@@H](C)CC)NC3=O [PP3071] | 8.18 | B (a compound having 3 or more and less than 10 is denoted as B) | A (a compound having 10 or more and less than 20 is denoted as A) |  |  | 
15 | CC[C@H](C)[C@@H]1NC(=O)[C@H](CC(C)C)N(C)C(=O)C[C@@H](C(=O)N(C)C)N(C)C(=O)[C@H](C2CCCC2)N(C)C(=O)C2(CCCC2)NC(=O)[C@@H]2CCCN2C(=O)[C@H](CCc2ccc(C(F)(F)F)c(Cl)c2)NC(=O)CN(C)C(=O)[C@H](Cc2ccc(C)cc2)N2CC=CCOC[C@@H](C2=O)N(C)C(=O)CN(C)C1=O [PP0627] | 7.01 |  |  | C (A compound having a KD ratio of 0.1 or more and less than 3 is denoted as C) | C (A compound having a KD ratio of 0.1 or more and less than 3 is denoted as C) | 
16 | CC[C@H](C)[C@@H]1NC(=O)[C@H](C2CC2)N(C)C(=O)C[C@@H](C(=O)N(C)C)N(C)C(=O)[C@H](C2CCCC2)N(C)C(=O)C2(CCCC2)N(C)C(=O)[C@@H]2C[C@@H](C)CN2C(=O)[C@H](CCc2cc(F)c(C(F)(F)F)c(F)c2)NC(=O)CN(C)C(=O)[C@H](Cc2ccc(C)cc2)N2CC/C=C\C[C@@H](C2=O)N(C)C(=O)CN(C)C1=O [PP1813] | 7.65 |  |  |  |  | HRAS /KRAS (HRAS wild-type protein; [7]): B (a compound having 3 or more and less than 10 is denoted as B); NRAS /KRAS [2, 8]: A (a compound having 10 or more and less than 20 is denoted as A)
